Laboratory results as given in patent publication US11882828B2, “Mosquito vector control compositions, methods and products utilizing same” (priority 2015, dated 2024).
Where two headings read alike, the source gives them in different places.

Legend:
Anopheles stephensi [1] = assay: Example B7: evaluation of insecticide impregnated polymer surfaces; assay type: in vivo; conditions: AI content 2 wt %; for mortality: 24 hours after exposure; for knock-down: after one hour
Source text: (§1) Preparation of polymeric sheets: Certain methoxyacrylate were Impregnated into three polymers: LDPE (low density polyethylene), HDPE (high density polyethylene) and PP (polypropylene) in different concentrations by mixing the respective polymer with a compound at high temperatures and the resultant polymeric material were then mould into thin discs or plaques.
(§2) Twenty four hours prior to the relevant assessment intervals, three to five day old non-blood fed adult mosquitoes were taken from the culture and lightly anaesthetised with carbon dioxide. Ten females were selected and placed in a 250 ml plastic cup, retained with a net lid, provided with a 10% sucrose solution soaked in a cotton wool bung and held under culturing environmental conditions.
(§3) After twenty four hours, impregnated polymer sheets (measuring about 150 mm in diameter and about 0.1 mm in thickness) were removed from storage and wrapped around the glazed side of an 11 cm ceramic tile and held in place with an elastic band. A cup of the pre-selected mosquitoes were again lightly anaesthetised with carbon dioxide and transferred from the holding cup to the base of a 9 cm plastic Petri dish. The relevant impregnated polymer sheet was placed over the Petri dish and held in place with an elastic band. Once the mosquitoes had recovered from the anaesthetic, ca. 1 minute, the impregnated polymer sheet was placed on a holding rack, such that treated side was at an angle of […] to the horizontal.
(§4) After one hour an assessment of mosquito knockdown was made. A mosquito was said to be knocked down if it was unable to right itself once it had fallen over. The mosquitoes were lightly anaesthetised again, and removed from the Petri dish exposure chamber and returned to the holding cups. The mosquitoes were supplied with a 10% sucrose solution soaked in a cotton wool bung and held under culturing environmental conditions. An assessment of mortality was made 24 hours after exposure. A mosquito was said to be dead if it is unable to right itself once it had fallen over.

Aedes aegypti [2] = assay: as above; assay type: in vivo; conditions: AI content 2 wt %; for mortality: 24 hours after exposure; for knock-down: after one hour
Source text: as §1, §2, §3, §4

[3] = tested on: Anopheles stephensi (Indian malaria mosquito); assay: whole plant or invertebrate; conditions: Anopheles stephensi; for pest or weed control at 20 ppm: 1 h, read-out: Knockdown; for mortality at 20 ppm: 48 h
Protocol: […] Once the deposits were dry, five non-blood fed adult female Anopheles stephensi (between two to five days old) were added to each well, and sustained with a 10% sucrose solution in a cotton wool plug. Assessment of the knockdown after 1 hour, and mortality after 48 hours was carried out.
(§5) In case of multiple tests, the mean value is reported.

FUMOZ = assay: Example B5: bottle based cross resistance study (CDC bottle assay); assay type: in vivo; conditions: Anopheles funestus, 24 h
Protocol: (§6) Based on the “CDC bottle assay” (described at http://www.cdc.gov/malaria/resources/pdf/fsp/ir_manual/ir_cdc_bioassay_en.pdf) 1 ml of ethanol containing a test compound at a defined concentration was added to a 250 ml glass bottle and the bottles were placed on a rolling table to coat the inner surfaces as the solvent evaporated. Once dry, twenty five non-blood fed adult female mosquitoes of the appropriate species and strains (each three day old) were aspirated from the stock culture and gently blown into the exposure bottles. The lid of the bottle was replaced and the bottle placed upright out of direct sun light under standard culture conditions, nominally 28C and 60-80% relative humidity.
(§7) A stopwatch was started, and the assessment of the knock-down were made after 15 minutes and 60 minutes. A mosquito was said to be knocked down if it was unable to stand, following the CDC definition. The bottles were replaced in an upright position when not being assessed.
(§8) After one hour the mosquitoes were carefully removed from the bottle with an aspirator and placed in a recovery cup. The mosquitoes were supplied with a 10% sucrose solution on a cotton wool bung, and stored under culture conditions. Assessments of the mortality were made after 24 hours.
(§9) Each treatment was replicated a minimum of four times, with the mean knockdown or mortality recorded. In each study, a set of bottles was infested with a known insecticide susceptible strain of mosquitoes from the same genera as the resistant strains.

An. Gambiae Kisumu sus = assay: as above; assay type: in vivo; conditions: Anopheles gambiae, 24 h
Protocol: as §6, §7, §8, §9

VK7 = assay: as above; assay type: in vivo; conditions: Anopheles coluzzii, Table B5b, after 24 hours
Protocol: as §6, §7, §8, §9

[4] = tested on: Aedes aegypti (Yellow fever mosquito); assay: whole plant or invertebrate; conditions: Aedes aegypti; for pest or weed control at 20 ppm: 1 h, read-out: Knockdown; for mortality at 20 ppm: 48 h
Protocol: […] Once the deposits were dry, five non-blood fed adult female Aedes aegypti (between two to five days old) were added to each well, and sustained with a 10% sucrose solution in a cotton wool plug. Assessment of the knockdown after 1 hour, and mortality after 48 hours was carried out.
as §5

Anopheles stephensi [5] = assay: whole plant or invertebrate; conditions: Anopheles stephensi, 48 h
Protocol: (§10) The individual wells of six (6) well tissue culture plates were treated with 250 μl of an ethanol solution containing a test compound at a defined concentration. Once the deposits were dry, ten non-blood fed adult female Aedes aegypti or Anopheles stephensi (each between two to five day old) were added to each well, and sustained with a 10% sucrose solution in a cotton wool plug.
(§11) Assessment of the mortality was carried out at 48 hours.
(§12) Each treatment was replicated twice, with the mean mortality recorded.

Aedes aegypti [6] = assay: whole plant or invertebrate; conditions: Aedes aegypti, 48 h
Protocol: as §10, §11, §12

[7] = HDPE, polymer 8 to 12 weeks old
[8] = LDPE, polymer 8 to 12 weeks old

| SMILES | knock-down (Anopheles stephensi [1]; HDPE, polymer 2 to 4 weeks old) | knock-down (Anopheles stephensi [1]; [7]) | knock-down (Anopheles stephensi [1]; LDPE, polymer 2 to 4 weeks old) | knock-down (Anopheles stephensi [1]; [8]) | knock-down (Anopheles stephensi [1]; PP, polymer 2 to 4 weeks old) | knock-down (Anopheles stephensi [1]; PP, polymer 8 to 12 weeks old) | knock-down (Aedes aegypti [2]; HDPE, polymer 2 to 4 weeks old) | knock-down (Aedes aegypti [2]; HDPE, polymer 6 to 8 weeks old) | knock-down (Aedes aegypti [2]; LDPE, polymer 2 to 4 weeks old) | knock-down (Aedes aegypti [2]; LDPE, polymer 6 to 8 weeks old) | knock-down (Aedes aegypti [2]; PP, polymer 2 to 4 weeks old) | knock-down (Aedes aegypti [2]; PP, polymer 6 to 8 weeks old) | pest or weed control at 20 ppm [3] | mortality at 20 ppm [3] | pest or weed control at 20 ppm [4] | mortality at 20 ppm [4] | mortality at 5 ppm (Anopheles stephensi [5]) | mortality at 5 ppm (Aedes aegypti [6]) | other results |
| --- | --- | --- | --- | --- | --- | --- | --- | --- | --- | --- | --- | --- | --- | --- | --- | --- | --- | --- | --- |
| CO/C=C(/C(=O)OC)c1ccccc1Oc1ncc(C(F)(F)F)s1 [Compound 13, Methyl (E)-3-methoxy-2-[2-[5-(trifluoromethyl)thiazol-2-yl]oxyphenyl]prop-2-enoate] | 100% | 90% | 100% | 100% | 100% | 100% | 100% | 100% | 100% | 100% | 100% | 100% | 100% | 100% | 100% | 100% | 100% | 78% | mortality (Anopheles stephensi [1]; HDPE, polymer 2 to 4 weeks old): 100%; mortality (Anopheles stephensi [1]; [7]): 0%; mortality (Anopheles stephensi [1]; LDPE, polymer 2 to 4 weeks old): 100%; mortality (Anopheles stephensi [1]; [8]): 80%; mortality (Anopheles stephensi [1]; PP, polymer 2 to 4 weeks old): 100%; mortality (Anopheles stephensi [1]; PP, polymer 8 to 12 weeks old): 10%; mortality (Aedes aegypti [2]; HDPE, polymer 2 to 4 weeks old): 73%; mortality (Aedes aegypti [2]; HDPE, polymer 6 to 8 weeks old): 65%; mortality (Aedes aegypti [2]; LDPE, polymer 2 to 4 weeks old): 93%; mortality (Aedes aegypti [2]; LDPE, polymer 6 to 8 weeks old): 95%; mortality (Aedes aegypti [2]; PP, polymer 2 to 4 weeks old): 87%; mortality (Aedes aegypti [2]; PP, polymer 6 to 8 weeks old): 35%; mortality at 25 ppm (FUMOZ; Table B5b, 25 ppm, after 24 hours, FUMOZ): 70%; mortality at 25 ppm (An. Gambiae Kisumu sus; Table B5b, 25 ppm, after 24 hours, Kisumu sus): 94%; mortality at 25 ppm (VK7; 24 h): 61% |
| CO/C=C(/C(=O)OC)c1ccccc1CO/N=C(\C)OC [Compound 22] | 100% | 90% | 100% | 80% | 100% | 100% | 93% | 95% | 100% | 100% | 100% | 100% | 100% | 100% | 100% | 100% | 100% | 100% | mortality at 25 ppm (FUMOZ): 68%; mortality at 25 ppm (An. Gambiae Kisumu sus): 100%; mortality at 25 ppm (VK7; read-out: Mortality): 96% |
